The test has as its target T1, Glucocorticoid Receptor (GR) (Homo sapiens, UniProt P04150).
T1 construct: purchased Invitrogen P2893
T1 sequence (P04150 1-777): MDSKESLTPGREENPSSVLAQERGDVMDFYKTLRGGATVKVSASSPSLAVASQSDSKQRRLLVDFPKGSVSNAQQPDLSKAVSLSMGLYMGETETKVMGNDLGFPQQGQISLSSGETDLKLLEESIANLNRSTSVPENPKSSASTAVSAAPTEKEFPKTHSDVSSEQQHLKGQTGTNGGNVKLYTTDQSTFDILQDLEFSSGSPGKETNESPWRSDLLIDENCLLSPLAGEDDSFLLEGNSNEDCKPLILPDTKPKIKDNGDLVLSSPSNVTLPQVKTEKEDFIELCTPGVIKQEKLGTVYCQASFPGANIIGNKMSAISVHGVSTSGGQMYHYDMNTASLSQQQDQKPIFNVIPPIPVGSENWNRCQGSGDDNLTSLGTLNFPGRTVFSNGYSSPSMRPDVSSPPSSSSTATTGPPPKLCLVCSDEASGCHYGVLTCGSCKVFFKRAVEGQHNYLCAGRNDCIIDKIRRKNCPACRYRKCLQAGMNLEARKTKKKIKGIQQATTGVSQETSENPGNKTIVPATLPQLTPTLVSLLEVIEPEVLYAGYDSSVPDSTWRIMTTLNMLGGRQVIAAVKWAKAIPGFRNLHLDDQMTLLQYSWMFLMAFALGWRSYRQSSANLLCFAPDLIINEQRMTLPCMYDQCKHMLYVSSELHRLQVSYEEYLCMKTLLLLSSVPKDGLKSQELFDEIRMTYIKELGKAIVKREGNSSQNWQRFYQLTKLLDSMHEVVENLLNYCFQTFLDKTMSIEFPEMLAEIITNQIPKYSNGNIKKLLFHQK
Kind of test: GR Fluorescence Polarization Assay (PolarScreen Glucocorticoid Receptor Competitor Assay, Red). To be noted: IC50 class ranges, read-out: GR binding. The protocol:
GR Fluorescence Polarization Assay
Fluorescence polarization assays were carried out using the PolarScreen™ Glucocorticoid Receptor Competitor Assay, Red from Invitrogen (P2893). The assay buffer was prepared according to the manufacturer's protocol and used to dilute the fluorescent glucocorticoid and GR. Compounds were prepared and serial diluted 1:4 in DMSO. Compound, fluorescent glucocorticoid and GR were added in a final volume of 20 μL and incubated overnight at 4° C. Fluorescent polarization was measured on the PerkinElmer Envision®.
As for `CCn1nc(-c2ccccn2)c2c1N[C@@H](C)CS[C@@H]2c1ccc(CCCO)cc1C` (single isomer, unassigned) [M.33, 3-(4-(1-ethyl-7-methyl-3-(pyridin-2-yl)-4,6,7,8-tetrahydro-1H-pyrazolo[3,4-e][1,4]thiazepin-4-yl)-3-methylphenyl)propan-1-ol], the IC50 fell in the range of 100 to 1000 nM.

On to `CCn1nc(-c2ccccn2)c2c1N[C@H](C)CS[C@@H]2c1ccc(CCCO)cc1C` (single isomer, unassigned) [M.34, 3-(4-(1-ethyl-7-methyl-3-(pyridin-2-yl)-4,6,7,8-tetrahydro-1H-pyrazolo[3,4-e][1,4]thiazepin-4-yl)-3-methylphenyl)propan-1-ol], for which the IC50 was 100 to 1000 nM.

For the compound `CCn1nc(-c2ccccn2)c2c1N[C@@H](C)CS[C@@H]2c1ccc(CCC(C)(C)O)cc1C` (single isomer, unassigned) [M.37, 4-(4-(1-ethyl-7-methyl-3-(pyridin-2-yl)-4,6,7,8-tetrahydro-1H-pyrazolo[3,4-e][1,4]thiazepin-4-yl)-3-methylphenyl)-2-methylbutan-2-ol], the IC50 is 100 to 1000 nM.

`CCn1nc(-c2ccccn2)c2c1N[C@H](C)CS[C@@H]2c1ccc(CCC(C)(C)O)cc1C` (single isomer, unassigned) [M.38, 4-(4-(1-ethyl-7-methyl-3-(pyridin-2-yl)-4,6,7,8-tetrahydro-1H-pyrazolo[3,4-e][1,4]thiazepin-4-yl)-3-methylphenyl)-2-methylbutan-2-ol]: the IC50 fell in the range of 100 to 1000 nM.

As to `Cc1cc(CCC(C)(C)O)ccc1[C@H]1SC[C@H](C)Nc2c1c(-c1ccccn1)nn2C` (single isomer, unassigned) [M.41, 4-(4-(1,7-dimethyl-3-(pyridin-2-yl)-4,6,7,8-tetrahydro-1H-pyrazolo[3,4-e][1,4]thiazepin-4-yl)-3-methylphenyl)-2-methylbutan-2-ol], the IC50 fell in the range of 100 to 1000 nM.

For the compound `Cc1cc(CCC(C)(C)O)ccc1[C@H]1SC[C@@H](C)Nc2c1c(-c1ccccn1)nn2C` (single isomer, unassigned) [M.43, 4-(4-(1,7-dimethyl-3-(pyridin-2-yl)-4,6,7,8-tetrahydro-1H-pyrazolo[3,4-e][1,4]thiazepin-4-yl)-3-methylphenyl)-2-methylbutan-2-ol], the IC50 fell in the range of 1000 to 10000 nM.

With `CCn1nc(-c2ccccn2)c2c1N[C@@H](C)CS[C@@H]2c1ccc(C(N)=O)cc1C` (single isomer, unassigned) [M.45, 4-(1-ethyl-7-methyl-3-(pyridin-2-yl)-4,6,7,8-tetrahydro-1H-pyrazolo[3,4-e][1,4]thiazepin-4-yl)-3-methylbenzamide], the IC50 lay in the range of 1000 to 10000 nM.

Turning to `CCn1nc(-c2ccccn2)c2c1N[C@H](C)CS[C@@H]2c1ccc(C(N)=O)cc1C` (single isomer, unassigned) [M.47, 4-(1-ethyl-7-methyl-3-(pyridin-2-yl)-4,6,7,8-tetrahydro-1H-pyrazolo[3,4-e][1,4]thiazepin-4-yl)-3-methylbenzamide], the IC50 was in the range of 100 to 1000 nM.

In the case of `Cc1cc(CCCO)ccc1[C@H]1SC[C@H](C)Nc2c1c(-c1ccccn1)nn2C` (single isomer, unassigned) [M.49, 3-(4-(1,7-dimethyl-3-(pyridin-2-yl)-4,6,7,8-tetrahydro-1H-pyrazolo[3,4-e][1,4]thiazepin-4-yl)-3-methylphenyl)propan-1-ol], the IC50 was 1000 to 10000 nM.

Regarding `Cc1cc(CCCO)ccc1[C@H]1SC[C@@H](C)Nc2c1c(-c1ccccn1)nn2C` (single isomer, unassigned) [M.50, 3-(4-(1,7-dimethyl-3-(pyridin-2-yl)-4,6,7,8-tetrahydro-1H-pyrazolo[3,4-e][1,4]thiazepin-4-yl)-3-methylphenyl)propan-1-ol], the IC50 was in the range of 1000 to 10000 nM.

In the case of `Cc1cc(C#CCCO)ccc1[C@H]1SC[C@H](C)Nc2c1c(-c1ccccn1)nn2C` (single isomer, unassigned) [M.53, 4-(4-(1,7-dimethyl-3-(pyridin-2-yl)-4,6,7,8-tetrahydro-1H-pyrazolo[3,4-e][1,4]thiazepin-4-yl)-3-methylphenyl)but-3-yn-1-ol], the IC50 was 100 to 1000 nM.

For `Cc1cc(C#CCCO)ccc1[C@H]1SC[C@@H](C)Nc2c1c(-c1ccccn1)nn2C` (single isomer, unassigned) [M.56, 4-(4-(1,7-dimethyl-3-(pyridin-2-yl)-4,6,7,8-tetrahydro-1H-pyrazolo[3,4-e][1,4]thiazepin-4-yl)-3-methylphenyl)but-3-yn-1-ol], the IC50 was in the range of 100 to 1000 nM.

On to `Cc1cc(C(=O)Nc2cccnc2C)ccc1[C@H]1SC[C@H](C)Nc2c1c(-c1ccncn1)nn2C` (single isomer, unassigned) [M.59, 4-(1,7-dimethyl-3-(pyrimidin-4-yl)-4,6,7,8-tetrahydro-1H-pyrazolo[3,4-e][1,4]thiazepin-4-yl)-3-methyl-N-(2-methylpyridin-3-yl)benzamide], for which the IC50 fell in the range of 1000 to 10000 nM.

For `Cc1cc(C(=O)Nc2cccnc2C)ccc1[C@H]1SC[C@@H](C)Nc2c1c(-c1ccncn1)nn2C` (single isomer, unassigned) [M.60, 4-(1,7-dimethyl-3-(pyrimidin-4-yl)-4,6,7,8-tetrahydro-1H-pyrazolo[3,4-e][1,4]thiazepin-4-yl)-3-methyl-N-(2-methylpyridin-3-yl)benzamide], the IC50 lay within 1000 to 10000 nM.

As for `CCn1nc(-c2ccccn2)c2c1NCCSC2c1ccc(C(=O)Nc2cccnc2C)cc1C` (single isomer, unassigned) [M.61, 4-(1-ethyl-3-(pyridin-2-yl)-4,6,7,8-tetrahydro-1H-pyrazolo[3,4-e][1,4]thiazepin-4-yl)-3-methyl-N-(2-methylpyridin-3-yl)benzamide], the IC50 was in the range of 100 to 1000 nM.

As for `CCn1nc(-c2ccccn2)c2c1N[C@@H](C)CS[C@@H]2c1ccc(C#CCN(C)C)cc1C` (single isomer, unassigned) [M.64, 3-(4-(1-ethyl-7-methyl-3-(pyridin-2-yl)-4,6,7,8-tetrahydro-1H-pyrazolo[3,4-e][1,4]thiazepin-4-yl)-3-methylphenyl)-N,N-dimethylprop-2-yn-1-amine], the IC50 is 1000 to 10000 nM.

Turning to `Cc1cc(C#CCO)ccc1[C@H]1SC[C@@H](C)Nc2c1c(-c1ccccn1)nn2C` (single isomer, unassigned) [M.69, 3-(4-(1,7-dimethyl-3-(pyridin-2-yl)-4,6,7,8-tetrahydro-1H-pyrazolo[3,4-e][1,4]thiazepin-4-yl)-3-methylphenyl)prop-2-yn-1-ol], the IC50 lay within 100 to 1000 nM.

On to `Cc1cc(Br)ccc1C1CCC(=O)Nc2c1c(C)nn2C` (stereo not drawn) [AA.2], for which the IC50 was in the range of 1000 to 10000 nM.

With `CCn1nc(-c2ccccn2)c2c1NC(=O)CCC2c1ccc(Br)cc1C` (stereo not drawn) [AA.3], the IC50 is below 100 nM.

Regarding `Cc1ccc(Oc2ccc(C3SCCNc4c3c(C)nn4C)cc2)cc1` (stereo not drawn) [D.75], the IC50 was in the range of 1000 to 10000 nM.

In the case of `Cc1ccc(Oc2ccc(C3SC(C)(C)CNc4c3c(C)nn4C)cc2)cc1` (stereo not drawn) [D.78], the IC50 lay in the range of 100 to 1000 nM.

Turning to `COc1cccc(C2SCCNc3c2c(C)nn3C)c1` (stereo not drawn) [D.81], the IC50 is 1000 to 10000 nM.

Regarding `Cn1nc(-c2cccnc2)c2c1NCCSC2c1ccc(Cl)cc1Cl` (stereo not drawn) [D.86], the IC50 lay within 1000 to 10000 nM.

For `Cc1ccc(-c2nn(C)c3c2C(c2ccc(Cl)cc2Cl)SCCN3)cc1` (stereo not drawn) [D.87], the IC50 was in the range of 100 to 1000 nM.

For the compound `Cn1nc(-c2ccc(C(C)(C)C)cc2)c2c1NCCSC2c1ccc(Cl)cc1Cl` (stereo not drawn) [D.88], the IC50 was 1000 to 10000 nM.

As for `Cn1nc(-c2ccc(Cl)c(Cl)c2)c2c1NCCSC2c1ccc(Cl)cc1Cl` (stereo not drawn) [D.89], the IC50 is 100 to 1000 nM.

As to `Cn1nc(C(F)(F)F)c2c1NCCSC2c1ccc(Cl)cc1Cl` (stereo not drawn) [D.91], the IC50 lay within 1000 to 10000 nM.

Values taken from patent publication US9150592B2, “Heterocyclic nuclear hormone receptor modulators” (AbbVie Inc., priority 2012, dated 2015).
